Experiments:
HSA (Sudlow site I) = target: T1, HSA (Sudlow site I) (Homo sapiens, UniProt P02768); experiment: doubly-selective R1-filtered and spin-echo 1H NMR competition binding, spy molecule warfarin; conditions: 25 μM, HSA 0 to 2.5 μM
T1 construct: Fatty acid free human serum albumin (A-3782) was purchased from Sigma and used without further purification; purchased Sigma A-3782

HSA [1] = target: T2, HSA (Homo sapiens, UniProt P02768); conditions: up to concentration of several hundred μM; cited from earlier work
HSA [2] = target: T2, HSA; conditions: 20° C.; read-out: KD^(a) binding constant of L-Trp measured with equilibrium dialysis; cited from earlier work
HSA [3] = target: T2, HSA; experiment: previous NMR measurement of the low affinity second binding site for Trp; conditions: 20° C., measured previously by NMR
Text: […]. J., 273, 641-644 (1991)) is somewhat larger. This small difference can probably be ascribed to the presence of a low affinity second binding site for Trp. […] Despite this complication, the values that are rapidly derived from the NMR screening experiments serve for most of the purposes in the early stages of drug discovery.

T2 sequence (P02768 25-609): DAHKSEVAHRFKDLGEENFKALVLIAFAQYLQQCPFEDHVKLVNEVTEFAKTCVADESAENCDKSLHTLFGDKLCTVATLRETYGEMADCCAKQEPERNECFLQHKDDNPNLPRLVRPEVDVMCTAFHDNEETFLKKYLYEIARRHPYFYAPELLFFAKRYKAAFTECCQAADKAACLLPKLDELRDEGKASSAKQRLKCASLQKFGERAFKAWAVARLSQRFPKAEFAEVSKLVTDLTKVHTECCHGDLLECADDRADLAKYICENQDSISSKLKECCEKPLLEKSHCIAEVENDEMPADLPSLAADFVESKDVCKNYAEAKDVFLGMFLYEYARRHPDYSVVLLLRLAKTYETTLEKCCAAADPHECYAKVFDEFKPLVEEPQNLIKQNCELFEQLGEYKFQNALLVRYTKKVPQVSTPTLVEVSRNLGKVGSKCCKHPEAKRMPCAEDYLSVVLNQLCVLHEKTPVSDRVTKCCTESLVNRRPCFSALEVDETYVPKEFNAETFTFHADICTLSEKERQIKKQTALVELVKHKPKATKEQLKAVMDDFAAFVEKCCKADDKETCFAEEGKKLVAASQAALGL
T1 sequence (P02768 25-609): as above

Structure (SMILES) | binding of the control molecule to HSA (signal intensity as a function of protein concentration) (HSA (Sudlow site I)) | interaction with HSA (HSA [1]) | Kd (HSA [2]) | affinity for the low affinity second binding site (HSA [3])
Cc1ccc2[nH]cc(CC(N)C(=O)O)c2c1 (stereo not shown) [5-CH3 D,L Trp (2), 5-CH3 D,L Trp] | does not bind | does not interact with HSA | – | –
N[C@@H](Cc1c[nH]c2ccccc12)C(=O)O [Trp, tryptophan] | – | – | 23 µM | several hundreds
